According to patent publication US7528164B2, “Substituted 4-aryl-4h-pyrrolo[2,3-h]chromenes and analogs as activators of caspases and inducers of apoptosis and the use thereof” (Cytovia, Inc., priority 2002, dated 2009):
Like-named read-outs stand apart in the source and are kept apart here.

What was measured:
T-47D = assay: Caspase cascade activation assay in T-47D cells (N-(Ac-DEVD)-N'-ethoxycarbonyl-R110 fluorogenic substrate); assay type: cell-based; conditions: T-47D human breast cancer cells, 24 h incubation; for Caspase activity (Ratio): ratio of net RFU of test compound to control; for EC50: sigmoidal dose-response, read-out: Caspase potency EC50
Description: (§1) Human breast cancer cell lines T-47D and ZR-75-1 were grown according to media component mixtures designated by American Type Culture Collection+10% FCS (Invitrogen Corporation), in a 5% CO2-95% humidity incubator at 37° C. T-47D and ZR-75-1 cells were maintained at a cell density between 30 and 80% confluency at a cell density of 0.1 to 0.6×10^6 cells/mL. Cells were harvested at 600×g and resuspended at 0.65×10^6 cells/mL into appropriate media+10% FCS. An aliquot of 45 μl of cells was added to a well of a 96-well microtiter plate containing 5 μl of a 10% DMSO in RPMI-1640 media solution containing about […] of 2-amino-3-cyano-4-(5-methyl-pyridin-3-yl)-7-methyl-4H-pyrrolo[2,3-h]chromene (Example 10) or other test compound (0.016 to 1 μM final). An aliquot of 45 μl of cells was added to a well of a 96-well microtiter plate containing 5 μl of a 10% DMSO in RPMI-1640 media solution without test compound as the control sample. The samples were mixed by agitation and then incubated at 37° C. for 24 h in a 5% CO2-95% humidity incubator. After incubation, the samples were removed from the incubator and 50 μl of a solution containing 20 μM of N-(Ac-DEVD)-N′-ethoxycarbonyl-R110 (SEQ ID No:1) fluorogenic substrate (Cytovia, Inc.; U.S. Pat. No. 6,335,429), 20% sucrose (Sigma), 20 mM DTT (Sigma), 200 mM NaCl (Sigma), 40 mM Na PIPES buffer pH 7.2 (Sigma), and 500 μg/ml lysolecithin (Calbiochem) was added. The samples were mixed by agitation and incubated at room temperature. Using a fluorescent plate reader (Model 1420 Wallac Instruments), an initial reading (T=0) was made approximately 1-2 min after addition of the substrate solution, employing excitation at 485 nm and emission at 530 nm, to determine the background fluorescence of the control sample. After the 3 h incubation, the samples were read for fluorescence as above (T=3 h).
(§2) The Relative Fluorescence Unit values (RFU) were used to calculate the sample readings as follows: RFU(T=3h)−Control RFU(T=0)=Net RFU(T=3h) The activity of caspase cascade activation was determined by the ratio of the net RFU value for 2-amino-3-cyano-4-(5-methyl-pyridin-3-yl)-7-methyl-4H-pyrrolo[2,3-h]chromene or other test compound to that of control samples. The EC50 (nM) was determined by a sigmoidal dose-response calculation (Prism 2.0, GraphPad Software Inc.).

ZR-75-1 = assay: Caspase cascade activation assay in ZR-75-1 cells (N-(Ac-DEVD)-N'-ethoxycarbonyl-R110 fluorogenic substrate); assay type: cell-based; conditions: ZR-75-1 human breast cancer cells, 24 h incubation; for Caspase activity (Ratio): ratio of net RFU of test compound to control; for EC50: sigmoidal dose-response, read-out: Caspase potency EC50
Description: as §1, §2

Row | Compound | Caspase activity (Ratio) (T-47D) | EC50 (T-47D) [nM] | Caspase activity (Ratio) (ZR-75-1) | EC50 (ZR-75-1) [nM] | EC50 (T-47D; T47D) [nM]
1 | 2-Amino-3-cyano-4-(5-methyl-pyridin-3-yl)-7-methyl-4H-imidazo[4,5-h]chromene [Example 14] | 8.0 | 19.8 | 9.9 | 10.4 | –
2 | 2-Amino-4-(3-bromo-4,5-dimethoxyphenyl)-3-cyano-7-(2-diethyl-amino-ethyl)-4H-pyrrolo[2,3-h]chromene [Example 6] | 3.3 | 413 | 7.0 | 259 | –
3 | 2-Amino-4-(3-bromo-4,5-dimethoxyphenyl)-3-cyano-7-methyl-4H-imidazo[4,5-h]chromene [Example 12] | 5.4 | 1.6 | 8.5 | 1.5 | –
4 | 2-Amino-4-(5-bromo-pyridin-3-yl)-3-cyano-7-methyl-4H-imidazo[4,5-h]chromene [Example 13] | 8.8 | 6.8 | 8.0 | 3.2 | –
5 | Cn1ccc2c3c(ccc21)C(c1cncc(C#N)c1)C(C#N)=C(N)O3 (stereo not shown) [Example 1, 2-Amino-4-(5-cyano-pyridin-3-yl)-3-cyano-7-methyl-4H-pyrrolo[2,3-h]chromene] | 8.3 | – | 5.2 | 6.5 | 25.5
6 | Cc1cncc(C2C(C#N)=C(N)Oc3c2ccc2c3ccn2C)n1 (stereo not shown) [Example 2, 2-Amino-3-cyano-7-methyl-4-(6-methyl-pyrazin-2-yl)-4H-pyrrolo[2,3-h]chromene] | 8.2 | – | 4.3 | 41.3 | 110
7 | Cn1ccc2c3c(ccc21)C(c1cnc2ccccc2n1)C(C#N)=C(N)O3 (stereo not shown) [Example 3, 2-Amino-3-cyano-7-methyl-4-(quinoxalin-2-yl)-4H-pyrrolo[2,3-h]-chromene] | 5.6 | – | 3.1 | 27.8 | 58.1
8 | CCn1ccc2c3c(ccc21)C(c1cc(Br)c(OC)c(OC)c1)C(C#N)=C(N)O3 (stereo not shown) [Example 4, 2-Amino-4-(3-bromo-4,5-dimethoxyphenyl)-3-cyano-7-ethyl-4H-pyrrolo[2,3-h]chromene] | 6.6 | – | 9.2 | 13.1 | 14
9 | COc1cc(C2C(C#N)=C(N)Oc3c2ccc2c3ccn2CC2CC2)cc(Br)c1OC (stereo not shown) [Example 5, 2-Amino-4-(3-bromo-4,5-dimethoxyphenyl)-3-cyano-7-cyclopropylmethyl-4H-pyrrolo[2,3-h]chromene] | 4.0 | – | 3.0 | 28.6 | 55.3
10 | Cn1ccc2c3c(ccc21)C(c1cncc(Cl)c1)C(C#N)=C(N)O3 (stereo not shown) [Example 7, 2-Amino-4-(5-chloro-pyridin-3-yl)-3-cyano-7-methyl-4H-pyrrolo[2,3-h]chromene] | 5.1 | – | 13.1 | 2.7 | 6.7
11 | Cn1ccc2c3c(ccc21)C(c1c[nH]c2ccccc12)C(C#N)=C(N)O3 (stereo not shown) [Example 8, 2-Amino-3-cyano-4-(indol-3-yl)-7-methyl-4H-pyrrolo[2,3-h]chromene] | 3.8 | – | 8.9 | 55 | 58.7
12 | Cn1ccc2c3c(ccc21)C(c1cnc(O)c(Cl)c1)C(C#N)=C(N)O3 (stereo not shown) [Example 9, 2-Amino-4-(5-chloro-6-hydroxy-pyridin-3-yl)-3-cyano-7-methyl-4H-pyrrolo[2,3-h]chromene] | 8.3 | – | 7.8 | 6.2 | 14.2
13 | Cc1cncc(C2C(C#N)=C(N)Oc3c2ccc2c3ccn2C)c1 (stereo not shown) [Example 10, 2-Amino-3-cyano-4-(5-methyl-pyridin-3-yl)-7-methyl-4H-pyrrolo[2,3-h]chromene] | 3.1 | – | 6.6 | 1.6 | 2.3
14 | Cn1ccc2c3c(ccc21)C(c1cncc(Br)c1)C(C#N)=C(N)O3 (stereo not shown) [Example 11, 2-Amino-4-(5-bromo-pyridin-3-yl)-3-cyano-7-methyl-4H-pyrrolo [2,3-h]chromene] | 4.6 | – | 4.1 | 1.1 | 2.9
15 | COc1cc(C2C(C#N)=C(N)Oc3c2ccc2c3ccn2C)cc(Br)c1OC (stereo not shown) [Example 16, 2-Amino-4-(3-bromo-4,5-dimethoxyphenyl)-3-cyano-7-methyl-4H-pyrrolo[2,3-h]chromene] | 8.1 | – | 11.7 | 1 | 1.6
16 | COc1cc(C2C(C#N)=C(N)Oc3c2ccc2c3ccn2CO)cc(Br)c1OC (stereo not shown) [Example 17, 2-Amino-4-(3-bromo-4,5-dimethoxyphenyl)-3-cyano-7-hydroxymethyl-4H-pyrrolo[2,3-h]chromene] | 7.2 | – | 3.3 | 1.6 | 2.1
17 | COc1cc(C2C(C#N)=C(N)Oc3c2ccc2c3ccn2C)cc(Br)c1O (stereo not shown) [Example 18, 2-Amino-4-(3-bromo-4-hydroxy-5-methoxyphenyl)-3-cyano-7-methyl-4H-pyrrolo[2,3-h]chromene] | 4.0 | – | 6.6 | 3.4 | 6
18 | COc1cc(C2C(C#N)=C(N)Oc3c2ccc2c3ccn2CC2CO2)cc(Br)c1OC (stereo not shown) [Example 19, 2-Amino-4-(3-bromo-4,5-dimethoxyphenyl)-3-cyano-7-oxiranylmethyl-4H-pyrrolo[2,3-h]chromene] | 10.2 | – | 11.7 | 107 | 231
19 | Cc1cncc(C2C(C#N)=C(N)Oc3c2ccc2c3ccn2CO)c1 (stereo not shown) [Example 20, 2-Amino-3-cyano-4-(5-methyl-pyridin-3-yl)-7-hydroxymethyl-4H-pyrrolo[2,3-h]chromene] | 4.7 | – | 6.3 | 2.4 | 3.7
20 | N#CC1=C(N)Oc2c(ccc3c2ccn3CO)C1c1cncc(Br)c1 (stereo not shown) [Example 21, 2-Amino-4-(5-bromo-pyridin-3-yl)-3-cyano-7-hydroxymethyl-4H-pyrrolo[2,3-h]chromene] | 2.2 | – | 4.4 | 1.6 | 3
21 | COc1cc(C2C(C#N)=C(N)Oc3c2ccc2c3ccn2C)cc(Br)c1OC(C)=O (stereo not shown) [Example 22, 2-Amino-4-(4-acetoxy-3-bromo-5-methoxyphenyl)-3-cyano-7-methyl-4H-pyrrolo[2,3-h]chromene] | 5.3 | – | 7.2 | 2 | 3.4
22 | COc1cc(C2C(C#N)=C(N)Oc3c2ccc2c3CCN2C)cc(Br)c1OC (stereo not shown) [Example 23, 2-Amino-4-(3-bromo-4,5-dimethoxyphenyl)-3-cyano-8,9-dihydro-7-methyl-4H-pyrrolo[2,3-h]chromene] | 5.2 | – | 5.0 | 2.3 | 3.3
23 | COc1cc(C2C(C#N)=C(N)Oc3c2ccc2c3ccn2C)cc(OC)c1OC (stereo not shown) [Example 24, 2-Amino-3-cyano-4-(3,4,5-trimethoxyphenyl)-7-methyl-4H-pyrrolo[2,3-h]chromene] | 5.5 | – | 7.1 | 2.2 | 3.4
24 | Cn1ccc2c3c(ccc21)C(c1cccc([N+](=O)[O-])c1)C(C#N)=C(N)O3 (stereo not shown) [Example 25, 2-Amino-3-cyano-4-(3-nitrophenyl)-7-methyl-4H-pyrrolo[2,3-h]chromene] | 3.2 | – | 7.1 | 3.2 | 7.2
25 | COc1cc(OC)cc(C2C(C#N)=C(N)Oc3c2ccc2c3ccn2C)c1 (stereo not shown) [Example 26, 2-Amino-3-cyano-4-(3,5-dimethoxyphenyl)-7-methyl-4H-pyrrolo[2,3-h]chromene] | 5.2 | – | 7.1 | 1.7 | 3.5
